Experimental data: patent US10517871B2, “Survivin-targeting anti-tumor agents and uses thereof” (Indiana University Research and Technology Corporation, priority 2015, dated 2019)
“Also recorded” adds a separate entry of the source. Residues, ends and D or L forms follow the SMILES beside them. *: point of attachment. Cbz = O=C(OCc1ccccc1)*

How the values were obtained:
DU145 cells = assay: MTT cell survival assay, DU145; type: cell-based, human; conditions: compared with LQZ-7
Protocol: (§1) Human prostate cancer cell lines DU145 (top) and PC3 cells (bottom) were cultured in the presence of vehicle DMSO or 20 μM compounds off in-silico screening for 3 days followed by MTT assay. Cells survived in the presence of various compounds were normalized to that treated by DMSO vehicle. Arrows indicate compounds that inhibited >50% in cell survival. (*p<0.05; **p<0.01).
(§2) These assays were performed as previously described^49,50. Briefly, MTT assay were performed by seeding 2500 cells in 96-well plate and cultured 24 hours before addition of survivin inhibitors at different concentrations and continuous culture for 3 days. The cells were then subjected to MTT assay. For colony formation assay, 100 cells/well were seeded in 6-well plates and cultured for 24 hours before addition of survivin inhibitors or DMSO vehicle. The cells were continuously cultured in the presence of survivin inhibitors or DMSO for 10-14 days followed by staining with crystal violet and counting manually.

PC-3 cells [1] = assay: MTT cell survival assay, PC-3; type: cell-based, human; conditions: PC3, MTT, compared with LQZ-7
Protocol: as §1, §2

[2] = molecular target: T1, ectopic Flag-tagged survivin in HEK293 cells (Homo sapiens, UniProt O15392); assay: Western blot of ectopic tagged survivin in HEK293; type: cell-based
T1 construct: expressed in transfected cells; host or cells: HEK293 cells, CMV promoter

human cancers = conditions: several phase II trials; cited from earlier work
survivin in PC3 cells [3] = molecular target: T2, survivin in PC3 cells (Homo sapiens, UniProt O15392); assay: Proteasome inhibitor reversal of compound-induced survivin degradation; type: cell-based; conditions: for effect of proteasome inhibitor on LQZ-7F-induced survivin degradation: co-treatment with LQZ-7F
T2 construct: endogenous in cells; host or cells: PC-3 cells

PC-3 xenograft tumors = assay: PC-3 xenograft mouse model efficacy; type: in vivo, NOD/SCID mice
Protocol: We next determined if LQZ-7F is active in suppressing tumor growth in vivo using xenograft animal model. For this purpose, NOD/SCID mice were first implanted subcutaneously with PC-3 cells to establish xenograft tumors. PC-3 cell was chosen because it has highest IC50 (FIG. 6). When the xenograft tumor reached the size of ˜100 mm^3, the mice were randomized into two groups and treated with 25 mg/kg LQZ-7F or vehicle control via IP injection once every three days for total of 8 treatments. The growth of the xenograft tumors were measured using a caliper and body weight was monitored every three days for a total of 30 days. […] In fact, the body weight of the control group dropped slightly possibly due to disease burden of xenograft tumors. This symptom appears to be alleviated by LQZ-7F treatment, consistent with smaller tumor size in the treatment group.
For efficacy study, 3×10^6 PC-3 cells were injected subcutaneously in the flanks of 10 NOD/SCID mice. When the tumor volume reached about 100 mm^3, the mice were randomized into two different groups (5/group) with one group treated by vehicle control and the other by LQZ-7F at 25 mg/kg via IP injection once every three days for total of 8 treatments. Tumor volume and body weight were measured […]. On the 30th day after the initial treatment, mice were euthanized and the tumor tissues were harvested, weighed, and subjected to hematoxylin and eosin (H&E) staining as well as Western blot and immunohistochemistry analysis of survivin.

purified survivin = purified survivin (Homo sapiens, UniProt O15392); assay: Pull-down assay with sepharose-immobilized compound; type: binding; conditions: CNBr-activated sepharose, vs control beads
From the text: LQZ-7F was immobilized onto CNBr-activated Sepharose and used to pull down recombinant survivin, followed by separation on SDS-PAGE and silver staining.
To investigate if LQZ-7F indeed binds to survivin, we took advantage of the primary amine group and immobilized LQZ-7F onto CNBr-activated sepharose for a pull-down assay using purified survivin.

[4] = molecular target: T3, survivin in DU145 and PC-3 cells (Homo sapiens, UniProt O15392); assay: Survivin half-life determination (cycloheximide chase); type: cell-based; conditions: PC-3, cycloheximide pre-treated, 5 μM LQZ-7F
T3 construct: endogenous in cells; host or cells: DU145 and PC-3 cells
Protocol: PC-3 cells were pre-treated with cycloheximide (CHX) to inhibit protein synthesis followed by chasing for different times in the presence of LQZ-7F or DMSO control and Western blot analysis of remaining survivin.
The effect of survivin inhibitor on the half-life of survivin was determined as previously described^51. […] The cells were then harvested for Western blot analysis of survivin.

PC-3 cells [5] = assay: Microtubule structure by α-tubulin immunostaining; type: cell-based, human; conditions: PC-3, 2 μM, 24 hours
Protocol: PC3 cells were treated without or with 2 μM LQZ-7F for 24 hours followed by immunostaining of α-tubulin and counter-stained with DAPI. The images were captured using confocal microscopy.

A549 cells = assay: Colony formation assay, A549; type: cell-based, human; conditions: control 45%
Protocol: as §2

PC3 cells = assay: Colony formation assay, PC3; type: cell-based, human; parameters: unit of the concentration uncertain; conditions: control approximately 62%
Protocol: as §2

survivin in PC3 cells [6] = molecular target: T2, survivin in PC3 cells; assay: Western blot of endogenous survivin, PC3; type: cell-based; conditions: vs vehicle
[7] = tested on: multiple human cancer cell lines (acute myeloid leukemia, breast, colon, lung, pancreas, prostate, ovary); assay: MTT assay, multiple human cancer cell lines; type: cell-based; conditions: range over all cell lines tested, read-out: IC50 for survival of cancer cell lines
Protocol: Toward this goal, we tested the effect of LQZ-7F on survival of multiple human cancer cell lines representing acute myeloid leukemia and cancers of breast, colon, lung, pancreas, prostate, and ovary using MTT assay.
as §2

survivin in DU145 cells = molecular target: T4, survivin in DU145 cells (Homo sapiens, UniProt O15392); assay: Western blot of endogenous survivin, DU145; type: cell-based; conditions: vs vehicle
T4 construct: endogenous in cells; host or cells: DU145

[8] = tested on: survivin mRNA in DU145 cells; assay: Real-time RT-PCR of survivin mRNA; type: cell-based, human; conditions: DU145, 48 hrs
14-3-3σ = molecular target: T5, 14-3-3σ (Homo sapiens, UniProt P31947); assay: Non-denaturing PAGE of 14-3-3σ dimerization; type: biochemical; conditions: 100 μM
T5 sequence (P31947 1-248): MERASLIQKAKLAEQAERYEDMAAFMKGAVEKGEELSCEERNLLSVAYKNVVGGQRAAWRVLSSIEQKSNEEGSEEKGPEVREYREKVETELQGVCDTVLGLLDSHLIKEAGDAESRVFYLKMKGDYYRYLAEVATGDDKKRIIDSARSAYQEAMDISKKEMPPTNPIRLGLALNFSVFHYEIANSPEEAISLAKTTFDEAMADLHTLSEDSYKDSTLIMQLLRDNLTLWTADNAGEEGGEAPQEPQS
Protocol: After centrifugation at 11,000×g for 10 minutes, the supernatants were separated by electrophoresis on 15% Tris/glycine polyacrylamide gel followed by transfer to PVDF membrane for western blot analysis as previously described^48.

[9] = molecular target: survivin and its partner Ran protein (Homo sapiens, UniProt O15392); conditions: cited from earlier work
survivin = survivin (Homo sapiens, UniProt O15392); conditions: cited from earlier work
cancer cells = conditions: read-out: IC50 for proliferation of cancer cells; cited from earlier work

T2 sequence (O15392 whole entry): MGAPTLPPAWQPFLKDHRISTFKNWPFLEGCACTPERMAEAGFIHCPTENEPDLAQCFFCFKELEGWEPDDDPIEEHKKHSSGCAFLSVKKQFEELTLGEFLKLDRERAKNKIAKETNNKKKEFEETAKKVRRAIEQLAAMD
T1 sequence (O15392 whole entry): as above
Chain of survivin (O15392 whole entry): as above
Chain of purified survivin (O15392 whole entry): as above
T4 sequence (O15392 whole entry): as above
T3 sequence (O15392 whole entry): as above
Chain of survivin and its partner Ran protein (O15392 whole entry): as above

In the case of Cc1cccc(Nc2nc3nonc3nc2N/N=C/c2cc3c(cc2[N+](=O)[O-])OCO3)c1C [LQZ-7D], the IC50 in words (DU145 cells) is reported as “low IC50”, the IC50 in words (PC-3 cells [1]) is reported as “low IC50” and the “level of ectopic tagged survivin” value [2] is reported as “no effect”.
For COCCn1c2c([n+](Cc3cnccn3)c1C)C(=O)c1ccccc1C2=O [YM155], the clinical efficacy (human cancers) is given as “limited or modest at best efficacy”.
With CC(C)C[C@@H](C=O)NC(=O)[C@H](CC(C)C)NC(=O)[C@H](CC(C)C)NC(=O)OCc1ccccc1 [MG132] (Cbz-Leu-Leu-Leu-aldehyde) the “effect of proteasome inhibitor on LQZ-7-induced survivin loss” value (survivin in PC3 cells [3]; co-treatment with LQZ-7, PC-3) was “reversed” and the “effect of proteasome inhibitor on LQZ-7F-induced survivin degradation” value (survivin in PC3 cells [3]) was “able to rescue”.
With Nc1nonc1C(=O)N/N=C1\c2ccccc2-c2nc3nonc3nc21 [LQZ-7F] the “body weight of mice” value (PC-3 xenograft tumors; 25 mg/kg IP once every three days, 8 treatments) was “remained constant”, the “growth of xenograft tumors” value (PC-3 xenograft tumors; 25 mg/kg IP once every three days, 8 treatments, vs vehicle) was “significantly inhibited” and the “average weight of final tumors” value (PC-3 xenograft tumors; 25 mg/kg IP, day 30, vs control group) was “significantly less”. For the same molecule, the “apoptotic cells in tumors” value (PC-3 xenograft tumors; 25 mg/kg IP, vs control-treated tumors) was “more apoptotic cells”, the “survivin in xenograft tumors” value (PC-3 xenograft tumors; Western blot and IHC, vs control-treated group) was “dramatically reduced” and the IC50 in words (DU145 cells) was “lower IC50 than the parent compound”. For the same molecule, the “pull-down of survivin by immobilized compound” value (purified survivin) was “successfully pulled down”, the IC50 in words (PC-3 cells [1]) was “lower IC50 than the parent compound” and the “degradation of endogenous survivin” value [4] was “increased degradation”. The microtubule structure (PC-3 cells [5]) was “severely disrupted”, the mitotic arrest (PC-3 cells [5]) was “many cells are arrested in mitotic phase” and the colony formation efficiency (A549 cells; A549, 0.2) was “approximately 2.5%”. The colony formation efficiency (A549 cells; A549, 0.5) was roughly 0%, the colony formation efficiency (PC3 cells; PC3, 0.2 (unit uncertain)) was “approximately 52%” and the colony formation efficiency (PC3 cells; PC3, 0.5 (unit uncertain)) was roughly 12%. The colony formation efficiency (PC3 cells; PC3, 1 (unit uncertain)) was roughly 8%, the “endogenous survivin protein level” value (survivin in PC3 cells [6]) was “effectively suppressed” and the IC50 [7] was 0.4 to 4.4 µM. For the same molecule, the “level of ectopic tagged survivin” value [2] was “reduced survivin protein level; also recorded: completely eliminated survivin” and the “endogenous survivin protein level” value (survivin in DU145 cells) was “effectively suppressed”.
With Cc1cccc(Nc2nc3nonc3nc2N/N=C/c2ccc(-c3cccc(C(=O)O)c3)o2)c1C [LQZ-7] the “survivin mRNA level” value [8] was “no effect” and the “effect on 14-3-3σ dimerization” value (14-3-3σ) was “no effect”.
In the case of Cc1cccc(Nc2nc3nonc3nc2N/N=C/c2ccc(-c3ccc(Cl)c([N+](=O)[O-])c3)o2)c1C [LQZ-7A], the IC50 in words (DU145 cells) is reported as “low IC50”, the IC50 in words (PC-3 cells [1]) is reported as “low IC50” and the “level of ectopic tagged survivin” value [2] is reported as “no effect”.
With CC(C)C[C@H](NC(=O)[C@H](Cc1ccccc1)NC(=O)c1cnccn1)B(O)O [bortezomib] the “effect of proteasome inhibitor on LQZ-7F-induced survivin degradation” value (survivin in PC3 cells [3]) was “able to rescue”.
For N#Cc1c(-c2cc(OCc3ccccc3)cc(OCc3ccccc3)c2)cc(-c2cc(Cl)ccc2O)[nH]c1=O [LLP3], the “interaction between survivin and Ran protein” value [9] is listed as “inhibited”, the “effect on survivin dimerization or its expression” value (survivin) is listed as “no effect” and the IC50 (cancer cells) is listed as 14 to 38 µM.
